Measured values from patent publication US6083931A, “Method of inhibiting cancer metastasis” (NGK Insulators, Ltd., priority 1997, dated 2000).
Counter-ions that a name gives are not always drawn.

How the values were obtained:
[1] = system: rat AH66F cells adhering to mesentery cells (M-cells); test: Inhibition of adhesion of rat AH66F cancer cells to rat mesentery cells (M-cells); format: cell-based; conditions: average over four wells
Description: The present inventors employed, as a model system for the measurement of the metastasis-inhibiting action upon the cancer cells, a system in which rat ascites hepatoma as extremely malignant cancer cells were adhered to mesenteries of a rat. They also employed a cell system as a simpler technique. As the former cancer cells, AH66F-cells were used, whereas M-cells were used as the latter mesentery cells.
(§1) Mesentery cells (M-cells) originating from a rat was cultivated inside a cell-cultivating well plate with a Dulbecco's Modification of Eagle's Medium (DMEM) containing 5% fetal calf serum (FCS). When the cells spread over the entire face of the well, the cells were washed with DMEM containing no FC3. Further, the cells were cultivated with DMEM containing 10 μg/ml or 100 μg/ml of sialic acid at 37° C. After 45 minutes passed, the well was washed with DMEM, and rat AH66F cells ([…]) and sialic acid at a concentration shown in FIG. 1 were added together with DMEM. […] Then, the number of the cells was measured by a haemacytometer under a microscope (the number of non-adhered cells).
(§2) As a control, only cancer cells were cultivated, the same operations as mentioned above were effected, and the number of the cells were measured (the number of cells in control).
(§3) The adhesive rate (%) of the cancer cells was calculated according to the following calculating formula. […]

[2] = system: AH66F cells adhering to M-cells; test: Inhibition of adhesion of AH66F cells to M-cells under coexistence of anti-LFA-1 antibody; format: cell-based, rat
Experimental: as §1, with “DMEM. The mixture was cultivated at 37° C. for one hour. After the cultivation, the mixture was stirred for 30 second, and a cultivation supernatant liquid was taken into a sample tube. Into each well was added 200 μl of fresh DMEM, and washing was similarly carried out under stirring for 15 seconds.” for “DMEM.”
as §2, §3

AH66F cancer cells = test: Life-prolonging effect upon rats with AH66F cancer cells; format: in vivo, rat; conditions: for Survival dates: peritoneally administered, control 7.3 ± 0.3; for Life-prolonging percentage: vs control group
Experimental: AH66F cancer cells (1×10^6 cells) were each peritoneally administered to Donryu male rats (six week age, 100-120 g, each group--6 rats). Immediately thereafter, a solution of sialic acid (dosage: 10 mg/kg and 100 mg/kg) or physiological saline solution was peritoneally administered in a dosage of 0.5 ml (control group). Then, after sialic acid or physiological saline solution was peritoneally administered over 2 days, survival dates of the rats were observed.
The life-prolonging percentage was calculated according to the following formula. Life-prolonging percentage=[(survival dates of treated group)-(survival dates of control group)/(survival dates of control group]×100

[3] = Acute toxicity test, intravenous, male Wister-strain rats; conditions: rat, in vivo, intravenous administration, sodium salts, pH 7.0

Compound | inhibition at 10 µg/mL ([1]; 10 μg/ml sialic acid) [%] | inhibition at 100 µg/mL ([1]; 100 μg/ml sialic acid) [%] | inhibition at 100 µg/mL ([2]; Rattus norvegicus, 100 μg/ml sialic acid under coexistence of 10 μg/ml anti-LFA-1 antibody) [%] | synergistic effect on adhesion inhibition (in words) ([2]; sialic acid with anti-LFA-1 antibody) | life-prolonging effect, times that of control group (AH66F cancer cells; 10 mg/Kg) [times] | Survival dates (AH66F cancer cells; 10 mg/Kg × 3 days) | Life-prolonging percentage (AH66F cancer cells; 10 mg/Kg × 3 days) [%] | life-prolonging effect, times that of control group (AH66F cancer cells; 100 mg/Kg) [times] | Survival dates (AH66F cancer cells; 100 mg/Kg × 3 days) | Life-prolonging percentage (AH66F cancer cells; 100 mg/Kg × 3 days) [%] | LD50 [3] [mg/kg]
CC(=O)N[C@H]1[C@H]([C@H](O)[C@H](O)CO)OC(O)(C(=O)O)C[C@@H]1O (stereo partly drawn) [sialic acid, N-acetylneuraminic acid] | 27 | 31 | 7 | synergistic effect | 1.6 | 11.5 ± 0.4 | 58 | 1.8 | 13.4 ± 0.4 | 84 | –
CC(=O)N[C@H]1[C@H]([C@H](O)[C@H](O)CO)OC(O)(C(=O)O)C[C@@H]1O (stereo partly drawn) [sodium salts of sialic acid] | – | – | – | – | – | – | – | – | – | – | ≥ 2000
CC(=O)NC1C(O)CC(OC(CO)C(O)C2OC(OC(CO)C(O)C3OC(O)(C(=O)O)CC(O)C3NC(C)=O)(C(=O)O)CC(O)C2NC(C)=O)(C(=O)O)OC1C(O)C(O)CO (stereo not drawn) [trimer] | – | – | – | – | – | – | – | – | – | – | ≥ 2000
